Experimental data taken from PMC6736837, “^18F-labelled triazolyl-linked argininamides targeting the neuropeptide Y Y1R for PET imaging of mammary carcinoma” (Scientific Reports, 2019).

Tests used:
[1] = Radioactive metabolites of Y1R radioligands in mouse blood; assay type: in vivo; details: for stability in the blood in vivo (in words): mouse blood samples taken early after radiotracer injection; for intact radioligand in blood samples: 5 min p.i.
Protocol: Nude mice were anesthetised with isoflurane and injected with the respective radiotracer (3–25 MBq) into the tail vein. After 5 min, animals were sacrificed by cervical dislocation and approx. 100 µL blood were collected from the abdomen and transferred into Li-heparinised Microvettes® (100 LH, Sarstedt). The same volume of aqueous urea (0.8 g/mL) was added and the Microvette® was centrifuged (2000 × g, 5 min). The supernatant was transferred to a 1.5 mL reaction vial, mixed with the same volume of 10% aqueous TFA and centrifuged (20000 × g, 5 min). This step was repeated once. A sample of the resulting supernatant (100 µL) was analysed by radio-HPLC using two methods (Chromolith RP-18e, 100 × 4.6 mm, 4 mL/min, 0–1 min 25% CH3CN (0.1%TFA) in water (0.1%TFA), 1–6 min 25–60%, 6–7 min 60–100%, 7–8 min 100%; Kromasil 100 C8 5 µm, 250 × 4.6 mm, 1.5 mL/min, 1–25 min 20–53.3% CH3CN (0.1% TFA) in water (0.1% TFA), 25–27 min 53.3–80%, 27–28 min 80–100%, 28–32 min 100%).

[2] = Radiotracer stability in human serum by radio-HPLC; assay type: in vitro ADME; details: 37 °C
Protocol: The stability of ^18F-labelled compounds was determined in human serum. An aliquot of the radiotracer (5–10 MBq) was added to 200 µL human serum and incubated at 37 °C. Aliquots of 15 µL were taken after 5, 10, 15, 30, 45, 60, 120 and 180 min and quenched in 100 µL of 10% aqueous TFA. The samples were centrifuged (20000 × g, 2 min), and the supernatants were analysed by radio-HPLC (Chromolith RP-18e, 100 × 4.6 mm, 4 mL/min, 0–1 min 25% CH3CN (0.1% TFA) in water (0.1% TFA), 1–6 min 25–60%, 6–7 min 60–100%, 7–8 min 100%).

[3] = Biodistribution in healthy mice; assay type: in vivo, mouse; details: for kidney uptake: at 30 and 90 min p.i.
Protocol: Biodistribution studies were conducted using female NMRI outbred mice (HsdWin:NMRI) purchased from Envigo (Horst, The Netherlands). Mice were kept in groups of four to five animals in individually ventilated cages in a twelve hours dark/light cycle with unlimited access to water and standard chow. At the age of eight to nine weeks six animals per radiotracer were injected with 2–4 MBq of the respective radiotracer under isoflurane anesthesia. Mice were sacrificed by cervical dislocation 30 or 90 min p.i. of the radiotracer. Blood as well as the organs/tissues lung, liver, kidneys, heart, spleen, brain, muscle, intestines, gall bladder and bones were harvested and analysed in the γ-counter. Samples were weighed and radioactivity in different tissues was calculated as percentage of the total injected dose per gram tissue (%ID/g).

Compound	stability in the blood in vivo (in words) [1]	intact radioligand in blood samples ([1]; mouse)	Stability over 3 h in human serum [2] [%]	uptake in the gall bladder ([3]; after 90 min)	kidney uptake [3]	radiometabolites in the blood ([1]; mouse) [%]
N/C(=N/C(=O)NCc1cn([C@@H]2OC(C[18F])[C@@H](O)C(O)C2O)nn1)NCCC[C@@H](NC(=O)C(c1ccccc1)c1ccccc1)C(=O)NCc1ccc(O)cc1 (stereo partly drawn) [[^18F]11, (2R)‐5‐{[(1Z)‐Amino({[({1‐[(2R,5S)‐6‐([^18F]fluoromethyl)‐3,4,5‐trihydroxyoxan‐2‐yl]‐1H‐1,2,3‐triazol‐4‐yl}methyl)carbamoyl]imino})methyl]amino}‐2‐(2,2‐diphenylacetamido)‐N‐[(4‐hydroxyphenyl)-methyl]pentanamide]	higher stability in the blood in vivo	about 50%	>99	up to 600 %ID/g	less than 5 %ID/g	–
N/C(=N/C(=O)NCc1cn(CCOCCOCCOCC[18F])nn1)NCCC[C@@H](NC(=O)C(c1ccccc1)c1ccccc1)C(=O)NCc1ccc(O)cc1 [[^18F]13, (2R)‐5‐{[(1Z)‐Amino[({[1‐(2‐{2‐[2‐(2‐[^18F]fluoroethoxy)ethoxy]ethoxy}ethyl)‐1H‐1,2,3‐triazol‐4‐yl]methyl}carbamoyl)imino]methyl]amino}‐2‐(2,2‐diphenylacetamido)‐N‐[(4‐hydroxyphenyl)-methyl]pentanamide]	underwent rapid degradation in the blood	less than 5%	>99	–	less than 5 %ID/g	> 90
